Data taken from ChEMBL document CHEMBL1201862, “PubChem BioAssay data set” (2004).
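Cells were grown in 96-well plates and exposed to each compound for 48 hours at five concentrations; endpoints were interpolated linearly between bracketing concentrations, or set to the highest concentration if not reached. The concentration for 50% growth inhibition is given as GI50.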 Calls of active or inactive are those of the source. Rule as the data show it: active = GI50 up to about 1.1 µM and inactive = higher.

Assays:
Assay in all cases: NCI tumour cell line growth inhibition, 48 h
[1] = tested on: SF-268
[2] = tested on: SK-MEL-5
[3] = tested on: SK-OV-3
[4] = tested on: SNB-75
[5] = tested on: MOLT-4
[6] = tested on: SK-MEL-28
[7] = tested on: OVCAR-8
[8] = tested on: NCI-H226
[9] = tested on: A498
[10] = tested on: IGROV-1
[11] = tested on: A549
[12] = tested on: NCI/ADR-RES
[13] = tested on: HOP-62
[14] = tested on: HCC 2998
[15] = tested on: RXF 393
[16] = tested on: SF-295
[17] = tested on: SNB-19
[18] = tested on: HCT-15
[19] = tested on: HOP-92
[20] = tested on: MDA-MB-435

Row | Structure (SMILES) | GI50 [1] | GI50 [2] | GI50 [3] | GI50 [4] | GI50 [5] | GI50 [6] | GI50 [7] | GI50 [8] | GI50 [9] | GI50 [10] | GI50 [11] | GI50 [12] | GI50 [13] | GI50 [14] | GI50 [15] | GI50 [16] | GI50 [17] | GI50 [18] [µM] | GI50 [19] | GI50 [20]
1 | CCCCS(=O)(=O)CCC(N)C(=O)O (configuration not stated) | > 100 µM (inactive) | > 100 µM (inactive) | > 100 µM (inactive) | > 100 µM (inactive) | > 100 µM (inactive) | > 100 µM (inactive) | > 100 µM (inactive) | > 100 µM (inactive) | > 100 µM (inactive) | > 100 µM (inactive) | > 100 µM (inactive) | > 100 µM (inactive) | > 100 µM (inactive) | > 100 µM (inactive) | 36.1 µM (inactive) | > 100 µM (inactive) | > 100 µM (inactive) | > 100 | – | –
2 | NC(=O)COc1ccccc1 | > 100 µM (inactive) | > 100 µM (inactive) | > 100 µM (inactive) | > 100 µM (inactive) | > 100 µM (inactive) | > 100 µM (inactive) | > 100 µM (inactive) | > 100 µM (inactive) | > 100 µM (inactive) | > 100 µM (inactive) | > 100 µM (inactive) | – | > 100 µM (inactive) | > 100 µM (inactive) | > 100 µM (inactive) | > 100 µM (inactive) | > 100 µM (inactive) | > 100 | > 100 µM (inactive) | –
3 | CCOC(=O)/C=C(\C(=O)OCC)n1cc(C)c(=O)n(Cc2cn(COCCOC(C)=O)nn2)c1=O | 14.7 µM (inactive) | 20.9 µM (inactive) | 71.8 µM (inactive) | 21 µM (inactive) | 3.79 µM (inactive) | 10.5 µM (inactive) | 8.43 µM (inactive) | > 10 µM (inactive) | – | 16.7 µM (inactive) | 27.5 µM (inactive) | 22.6 µM (inactive) | 20.3 µM (inactive) | 22.9 µM (inactive) | 11.6 µM (inactive) | 19.5 µM (inactive) | 19 µM (inactive) | 6.93 | 1.61 µM (inactive) | 6.55 µM (inactive)
4 | Clc1cc2ncn(C3CCCCO3)c2cc1Cl (configuration not stated) | 34.6 µM (inactive) | 38.4 µM (inactive) | > 100 µM (inactive) | 11.7 µM (inactive) | 33.9 µM (inactive) | 39.4 µM (inactive) | 56.6 µM (inactive) | 17.5 µM (inactive) | – | 20.1 µM (inactive) | 47.8 µM (inactive) | 36.9 µM (inactive) | 69.8 µM (inactive) | 64.6 µM (inactive) | 44.7 µM (inactive) | 70.5 µM (inactive) | > 100 µM (inactive) | 63.2 | – | 75.9 µM (inactive)
5 | COc1cc(OC)nc(Nc2c(C#N)c3nc4ccccc4n3c3ccccc23)n1 | 29.9 µM (inactive) | > 100 µM (inactive) | 51.6 µM (inactive) | 16.4 µM (inactive) | > 100 µM (inactive) | > 100 µM (inactive) | 34.9 µM (inactive) | 39.4 µM (inactive) | – | 21.8 µM (inactive) | > 100 µM (inactive) | 29.8 µM (inactive) | 16.6 µM (inactive) | > 100 µM (inactive) | 39.8 µM (inactive) | 21.6 µM (inactive) | 25.1 µM (inactive) | > 100 | – | > 100 µM (inactive)
6 | CC1(C)N=C(/C(C#N)=[N+](/[O-])C(=O)c2ccccc2)C(C)(C)N1O | > 100 µM (inactive) | > 100 µM (inactive) | > 100 µM (inactive) | > 100 µM (inactive) | > 100 µM (inactive) | > 100 µM (inactive) | > 100 µM (inactive) | > 100 µM (inactive) | – | > 100 µM (inactive) | > 100 µM (inactive) | > 100 µM (inactive) | > 100 µM (inactive) | > 100 µM (inactive) | > 100 µM (inactive) | > 100 µM (inactive) | > 100 µM (inactive) | > 100 | > 100 µM (inactive) | > 100 µM (inactive)
7 | CC(C)/C(Cl)=N\OC(=O)Nc1ccc(F)cc1 | 24.6 µM (inactive) | 13.6 µM (inactive) | 17.8 µM (inactive) | – | 1.66 µM (inactive) | 5.81 µM (inactive) | 12.8 µM (inactive) | 18.2 µM (inactive) | 14.2 µM (inactive) | 14.8 µM (inactive) | 17.4 µM (inactive) | 6.9 µM (inactive) | 19.2 µM (inactive) | 15.7 µM (inactive) | 16.1 µM (inactive) | 14.4 µM (inactive) | 19.2 µM (inactive) | 3.48 | – | –
8 | S=C(NN=C1NCCCCN1)Nc1ccccc1 | 87.3 µM (inactive) | 48.8 µM (inactive) | 79.8 µM (inactive) | 80.9 µM (inactive) | 25.5 µM (inactive) | 35.5 µM (inactive) | 36 µM (inactive) | > 100 µM (inactive) | > 100 µM (inactive) | 43.4 µM (inactive) | 34.8 µM (inactive) | > 100 µM (inactive) | 68.9 µM (inactive) | > 100 µM (inactive) | – | 31.5 µM (inactive) | > 100 µM (inactive) | 37.4 | – | 39.7 µM (inactive)
9 | CCOC(=O)N1CCN(Cc2cc(=O)n3cc(C)ccc3n2)CC1 | > 100 µM (inactive) | – | > 100 µM (inactive) | > 100 µM (inactive) | > 100 µM (inactive) | > 100 µM (inactive) | > 100 µM (inactive) | > 100 µM (inactive) | – | > 100 µM (inactive) | > 100 µM (inactive) | > 100 µM (inactive) | > 100 µM (inactive) | > 100 µM (inactive) | – | > 100 µM (inactive) | > 100 µM (inactive) | > 100 | > 100 µM (inactive) | > 100 µM (inactive)
10 | CN(CCCn1ccnc1[N+](=O)[O-])CCCn1ccnc1[N+](=O)[O-] | > 100 µM (inactive) | > 100 µM (inactive) | > 100 µM (inactive) | > 100 µM (inactive) | 0.0861 µM (active) | > 100 µM (inactive) | > 100 µM (inactive) | > 100 µM (inactive) | > 100 µM (inactive) | > 100 µM (inactive) | > 100 µM (inactive) | > 100 µM (inactive) | > 100 µM (inactive) | – | > 100 µM (inactive) | > 100 µM (inactive) | – | > 100 | – | > 100 µM (inactive)
11 | COc1cc(C(=O)CBr)c(OC)cc1C | > 100 µM (inactive) | 52.7 µM (inactive) | > 100 µM (inactive) | > 10 µM (inactive) | > 100 µM (inactive) | > 100 µM (inactive) | > 100 µM (inactive) | 75.5 µM (inactive) | 84.7 µM (inactive) | > 100 µM (inactive) | > 100 µM (inactive) | > 100 µM (inactive) | > 100 µM (inactive) | – | > 100 µM (inactive) | > 100 µM (inactive) | > 100 µM (inactive) | > 100 | – | > 100 µM (inactive)
12 | COc1ccc(-n2c(C)nc3ccc(/N=C/c4ccccc4)cc3c2=O)cc1 | > 100 µM (inactive) | > 100 µM (inactive) | – | > 100 µM (inactive) | > 100 µM (inactive) | > 100 µM (inactive) | > 100 µM (inactive) | > 100 µM (inactive) | > 100 µM (inactive) | > 100 µM (inactive) | – | > 100 µM (inactive) | > 100 µM (inactive) | > 100 µM (inactive) | > 100 µM (inactive) | > 100 µM (inactive) | > 100 µM (inactive) | > 100 | – | > 100 µM (inactive)
13 | CSC1NC=Nc2c1sc(=S)n2-c1ccccc1 (configuration not stated) | > 100 µM (inactive) | > 100 µM (inactive) | > 100 µM (inactive) | 28.4 µM (inactive) | > 100 µM (inactive) | > 100 µM (inactive) | > 100 µM (inactive) | > 100 µM (inactive) | > 100 µM (inactive) | > 100 µM (inactive) | > 100 µM (inactive) | – | 24.2 µM (inactive) | > 100 µM (inactive) | > 100 µM (inactive) | > 100 µM (inactive) | > 100 µM (inactive) | > 100 | 83.8 µM (inactive) | –
14 | O=C(CSc1nc2ccc(I)cc2c(=O)n1Cc1ccccc1)NN1C(=O)CSC1c1ccccc1 (configuration not stated) | 28.8 µM (inactive) | 18.5 µM (inactive) | 24.1 µM (inactive) | 34.2 µM (inactive) | 29.2 µM (inactive) | 30.2 µM (inactive) | 32.7 µM (inactive) | 26.9 µM (inactive) | – | 22.6 µM (inactive) | 35.2 µM (inactive) | 26.5 µM (inactive) | 18.6 µM (inactive) | 21.5 µM (inactive) | 25.8 µM (inactive) | 27.1 µM (inactive) | 40.7 µM (inactive) | 14.1 | 19.4 µM (inactive) | 27.2 µM (inactive)
15 | O=C1OC(c2ccc([N+](=O)[O-])cc2)=N/C1=C\c1ccc(Cl)cc1 | > 100 µM (inactive) | > 100 µM (inactive) | > 100 µM (inactive) | > 100 µM (inactive) | > 100 µM (inactive) | > 100 µM (inactive) | > 100 µM (inactive) | > 100 µM (inactive) | > 100 µM (inactive) | > 100 µM (inactive) | > 100 µM (inactive) | – | > 100 µM (inactive) | > 100 µM (inactive) | 62.8 µM (inactive) | > 100 µM (inactive) | > 100 µM (inactive) | > 100 | > 100 µM (inactive) | > 100 µM (inactive)
16 | COc1cc([C@@H]2c3cc4c(cc3C[C@H]3COC(=O)[C@@H]32)OCO4)cc(OC)c1OC [DESOXYPODOPHYLLOTOXIN] | 0.00843 µM (active) | 0.00791 µM (active) | 0.0803 µM (active) | 0.0655 µM (active) | 0.00893 µM (active) | 0.0125 µM (active) | 0.00721 µM (active) | 0.00733 µM (active) | 0.00695 µM (active) | 0.0103 µM (active) | 0.00885 µM (active) | – | 0.0127 µM (active) | 0.00791 µM (active) | – | 0.00632 µM (active) | 0.0092 µM (active) | – | 0.199 µM (active) | 0.00261 µM (active)
